Source: PMC10135569, “Does Enhanced Structural Maturity of hiPSC-Cardiomyocytes Better for the Detection of Drug-Induced Cardiotoxicity?” (Biomolecules, 2023)

Tests used:
[1] = system: hiPSC-CMs (iCell2 Cardiomyocytes) 2D monolayers; test: Membrane potential (action potential) recordings with FluoVolt voltage-sensitive dye on the CellOPTIQ platform; type: cell-based, human; settings: for activity at 0.01 µM / activity at 0.03 µM / activity at 0.1 µM / activity at 0.3 µM: Homo sapiens, Cardiomyocyte, 0.5 h, 30 min, delta over DMSO 0.1%
Description: (§1) Cardiomyocytes (FUJIFILM Cellular Dynamics, Madison, WI, USA) were kept at −190 °C and prepared for culture as per the manufacturer’s instructions.
(§2) Standard fibronectin vs. Matrix Plus well coating: The cells were cultured using two different coatings in a humidified incubator at 37 °C with 5% CO2. First, 96-well glass-bottomed plates (MatTek, Ashland, MA) were coated with fibronectin ([…] in PBS supplemented with Ca^2+ and Mg^2+; Sigma, St. Louis, MO, USA) (defining FM). Second, CELLvo^TM Matrix Plus (StemBioSys, San Antonio, TX, USA), which were pre-coated on 96 well glass bottom plates and kept at 4 °C. On the day of plating, CELLvo^TM Matrix Plus plates were transferred to room temperature, rehydrated with phosphate buffer saline (PBS), incubated for 1 h at 37 °C, and washed 2× with PBS. Cells were introduced at a density of 50,000 cells/well to allow the formation of a confluent monolayer in each well (defined as MM). The maintenance protocols followed the manufacturer’s instructions and used the iCell^2 Cardiomyocytes Maintenance media for media changes every 2 days. Experiments were performed between days 5 and 6, as recommended by the manufacturers. Before beginning an experiment, cells were washed in serum-free media (SF media) (Fluorobrite DMEM, Gibco, Thermo Fisher Scientific, Horsham, UK).
(§3) The drug powders were dissolved in DMSO, and four stock concentrations at 1000× the final target concentration were prepared in DMSO. For the experiment, an intermediate concentration 2× the target solution was prepared in SF media. The addition of drugs to the cells was accomplished by replacing 50% of the well volume with the intermediate 2× solution. The same procedure was done for vehicle control using DMSO. The experimental number n = 8/concentration/testing compound in the FM or MM condition, and n = 36 for each positive or negative control in the FM or MM condition.
Cultures of hiPSC-CMs (5–6 days post-plating) were treated with FluoVolt dye (1:1000, Invitrogen, Cat# F10488) in SF media and incubated for 20 min at 37 °C with 5% CO2 and 80% humidity. Multi-well plates were placed in the environmentally controlled stage incubator (37 °C, 5% CO2, water-saturated air atmosphere) (Okolab Inc. Burlingame, CA) of the CellOPTIQ® platform (Clyde Biosciences Ltd., Glasgow, Scotland). The FluoVolt signal was recorded from a 0.2 mm × 0.2 mm area using a 40× (numerical aperture: NA 0.6) Excitation wavelength was 470 ± 10 nm using a light-emitting diode (LED), and emitted light was collected by two photomultipliers (PMTs) at 510–560 nm (channel 1) and 590–650 nm (channel 2), respectively. LED, PMT, and associated power supplies and amplifiers were supplied by Cairn Research Ltd. (Kent, UK) and digitized at 10 kHz and stored on a computer hard drive. In the case of FluoVolt-based action potential recordings, the short wavelength (channel 1, […]) was analyzed for action potential features.
(§4) The dye FluoVolt is loaded into the surface membrane (outer leaflet), and the dye remains within the membrane for many dots, allowing intermittent voltage measurements over the experimental period. In this study, measurements were restricted to within 30 mins of application of the drug. The measurements were made on the same area before/after drug/DMSO addition. […] Baseline spontaneous electrical activity and the associated contractility signal were recorded by capturing 10 s segments of fluorescent signal and video for 2D plates and 15 s for organoids from each well prior to compound addition. Drugs were tested at four concentrations in n = 8 independent replicates (i.e., 8 wells from a single plating) at each concentration. A vehicle control was included for each drug. A 10 s or 15 s recording was then taken 30 min after exposure to the drug or vehicle with only one concentration applied/well.

[2] = system: hiPSC-CMs (iCell2 Cardiomyocytes) 2D monolayers; test: Contractility measurements using video imaging (ContractilityTool / MUSCLEMOTION); type: cell-based, human; settings: Homo sapiens, Cardiomyocyte, 0.5 h, 30 min, delta over DMSO 0.1%
Description: as §1, §2, §3
as §4, with “applied/well. Offline analysis was performed using proprietary software (CellOPTIQ®).” for “applied/well.”
Short periods (10 s or 15 s) of video were analyzed using the ContractilityTool application (developed by F.L. Burton), which is an implementation of the MUSCLEMOTION algorithm.

[3] = FM monolayer, read-out: APD30 (%DD)
[4] = FM monolayer, read-out: APD90 (%DD)
[5] = FM monolayer, read-out: CL (%DD)
[6] = FM monolayer, read-out: Trise (%DD)
[7] = MM monolayer, read-out: APD30 (%DD)
[8] = MM monolayer, read-out: APD90 (%DD)
[9] = MM monolayer, read-out: CL (%DD)
[10] = MM monolayer, read-out: Trise (%DD)
[11] = both FM and MM monolayers, concentration not given
[12] = FM monolayer, read-out: CtAmp (%DD)
[13] = FM monolayer, read-out: CtD50 (%DD)
[14] = MM monolayer, read-out: CtAmp (%DD)
[15] = MM monolayer, read-out: CtD50 (%DD)

Question: With `COc1ccc([C@@H]2Sc3ccccc3N(CCN(C)C)C(=O)[C@@H]2OC(C)=O)cc1` [Diltiazem] as the compound, how does the activity at 0.01 µM [1, 3] read?
Answer: 98 ± 1.9%

Question: What about the activity at 0.01 µM [1, 4] of the same compound?
Answer: 96 ± 1.1%

Question: What about the activity at 0.01 µM [1, 5] of the same compound?
Answer: 102 ± 1.1%

Question: What about the activity at 0.01 µM [1, 6] of the same compound?
Answer: 105 ± 17%

Question: What about the activity at 0.03 µM [1, 3] of the same compound?
Answer: 92 ± 1.5%

Question: What about the activity at 0.03 µM [1, 4] of the same compound?
Answer: 92 ± 0.9%

Question: And the activity at 0.03 µM [1, 5]?
Answer: 103 ± 1.3%

Question: What about the activity at 0.03 µM [1, 6] of the same compound?
Answer: 103 ± 12.5%

Question: What about the activity at 0.1 µM [1, 3] of the same compound?
Answer: 76 ± 2.7%

Question: And the activity at 0.1 µM [1, 4]?
Answer: 78 ± 2.2%

Question: What about the activity at 0.1 µM [1, 5] of the same compound?
Answer: 96 ± 0.8%

Question: And the activity at 0.1 µM [1, 6]?
Answer: 91 ± 12%

Question: What about the activity at 0.3 µM [1, 3] of the same compound?
Answer: 60 ± 1.3%

Question: And the activity at 0.3 µM [1, 4]?
Answer: 62 ± 1.1%

Question: And the activity at 0.3 µM [1, 5]?
Answer: 85 ± 0.5%

Question: What about the activity at 0.3 µM [1, 6] of the same compound?
Answer: 116 ± 13.8%

Question: And the activity at 0.01 µM [1, 7]?
Answer: 100 ± 1.9%

Question: What about the activity at 0.01 µM [1, 8] of the same compound?
Answer: 96 ± 0.6%

Question: What about the activity at 0.01 µM [1, 9] of the same compound?
Answer: 98 ± 0.9%

Question: And the activity at 0.01 µM [1, 10]?
Answer: 86 ± 16.4%

Question: And the activity at 0.03 µM [1, 7]?
Answer: 91 ± 1.2%

Question: And the activity at 0.03 µM [1, 8]?
Answer: 90 ± 0.7%

Question: And the activity at 0.03 µM [1, 9]?
Answer: 96 ± 0.9%

Question: And the activity at 0.03 µM [1, 10]?
Answer: 79 ± 4%

Question: And the activity at 0.1 µM [1, 7]?
Answer: 80 ± 1.6%

Question: And the activity at 0.1 µM [1, 8]?
Answer: 77 ± 1.2%

Question: And the activity at 0.1 µM [1, 9]?
Answer: 83 ± 0.6%

Question: And the activity at 0.1 µM [1, 10]?
Answer: 79 ± 14.3%

Question: What about the activity at 0.3 µM [1, 7] of the same compound?
Answer: 65 ± 0.8%

Question: And the activity at 0.3 µM [1, 8]?
Answer: 62 ± 0.9%

Question: And the activity at 0.3 µM [1, 9]?
Answer: 71 ± 0.5%

Question: And the activity at 0.3 µM [1, 10]?
Answer: 74 ± 8.9%

Question: What about the “effect on APD30 (in words)” value [1, 11] of the same compound?
Answer: shortening

Question: And the “effect on APD90 (in words)” value [1, 11]?
Answer: shortening

Question: And the “effect on beating rate / spontaneous rate (in words)” value ([1]; both FM and MM, concentration not given)?
Answer: increase

Question: And the activity at 0.01 µM [2, 12]?
Answer: 142 ± 27.5%

Question: And the activity at 0.01 µM [2, 13]?
Answer: 103 ± 2.8%

Question: What about the activity at 0.03 µM [2, 12] of the same compound?
Answer: 127 ± 27.9%

Question: And the activity at 0.03 µM [2, 13]?
Answer: 95 ± 1.4%

Question: And the activity at 0.1 µM [2, 12]?
Answer: 108 ± 33.5%

Question: And the activity at 0.1 µM [2, 13]?
Answer: 82 ± 1.6%

Question: And the activity at 0.3 µM [2, 12]?
Answer: 59 ± 15.4%

Question: And the activity at 0.3 µM [2, 13]?
Answer: 68 ± 1.4%

Question: What about the activity at 0.01 µM [2, 14] of the same compound?
Answer: 101 ± 11.1%

Question: And the activity at 0.01 µM [2, 15]?
Answer: 105 ± 2.7%

Question: And the activity at 0.03 µM [2, 14]?
Answer: 94 ± 7.8%

Question: What about the activity at 0.03 µM [2, 15] of the same compound?
Answer: 99 ± 2.6%

Question: And the activity at 0.1 µM [2, 14]?
Answer: 93 ± 6.2%

Question: What about the activity at 0.1 µM [2, 15] of the same compound?
Answer: 81 ± 1.2%

Question: What about the activity at 0.3 µM [2, 14] of the same compound?
Answer: 73 ± 5.8%

Question: And the activity at 0.3 µM [2, 15]?
Answer: 61 ± 1.9%
